Reference: ChEMBL document CHEMBL3885881, “DrugMatrix”

Organism: Rattus norvegicus
Experiment: DrugMatrix - Regimen: Daily Repeat
Type: toxicity, organism-based, Sprague-Dawley
Set-up: regimen Daily Repeat, gender Male, age 6-8 weeks
Settings: in vivo, po, route oral GAVAGE; for TOTAL BILIRUBIN / TOTAL PROTEIN / URIC ACID / ALANINE AMINOTRANSFERASE / ALBUMIN / ALKALINE PHOSPHATASE / ASPARTATE AMINOTRANSFERASE / BLOOD UREA NITROGEN / CARBON DIOXIDE / CHLORIDE / CHOLESTEROL / CREATINE PHOSPHOKINASE / CREATININE / GLUCOSE / LIPASE / PHOSPHORUS / POTASSIUM / SODIUM / LACTATE DEHYDROGENASE: tissue Plasma; for ABSOLUTE BASOPHIL / ABSOLUTE EOSINOPHIL / ABSOLUTE LYMPHOCYTE / ABSOLUTE MONOCYTE / BASOPHIL / EOSINOPHIL / ERYTHROCYTE COUNT / HEMATOCRIT / HEMOGLOBIN / LEUKOCYTE COUNT / LYMPHOCYTE / MEAN CORPUSCULAR HEMOGLOBIN / MEAN CORPUSCULAR HEMOGLOBIN CONCENTRATION / MEAN CORPUSCULAR VOLUME / MONOCYTE / NEUTROPHIL / PLATELET COUNT: tissue Blood
[1] = 40 mg/kg, 72 h, dose level Low, time 3 day, […]
[2] = 40 mg/kg, 120 h, dose level Low, time 5 day, […]
[3] = 40 mg/kg, […], dose level Low, time 14 day
[4] = 75 mg/kg, 72 h, dose level High, time 3 day, vehicle 100 % WATER
[5] = 75 mg/kg, 120 h, dose level High, time 5 day, vehicle 100 % WATER

Structure (SMILES): C=CCN [ALLYLAMINE]
- TOTAL BILIRUBIN [1]: 0.37 mg/dL
- TOTAL PROTEIN [1]: 6.2 G/DL
- URIC ACID [1]: 0.87 mg/dL
- ABSOLUTE BASOPHIL [2]: 43.3 cells/µL
- ABSOLUTE EOSINOPHIL [2]: 90 cells/µL
- ABSOLUTE LYMPHOCYTE [2]: 7670 cells/µL
- ABSOLUTE MONOCYTE [2]: 220 cells/µL
- BASOPHIL [2]: 0.4%
- EOSINOPHIL [2]: 0.87%
- ERYTHROCYTE COUNT [2]: 6.74 x10E6/uL
- HEMATOCRIT [2]: 45.3%
- HEMOGLOBIN [2]: 14.1 G/DL
- LEUKOCYTE COUNT [2]: 9.63 x10E3/uL
- LYMPHOCYTE [2]: 79.33%
- MEAN CORPUSCULAR HEMOGLOBIN [2]: 20.87 pg
- MEAN CORPUSCULAR HEMOGLOBIN CONCENTRATION [2]: 31 G/DL
- MEAN CORPUSCULAR VOLUME [2]: 67.23 fL
- MONOCYTE [2]: 2.27%
- NEUTROPHIL [2]: 16.57%
- PLATELET COUNT [2]: 1351.33 x10E3/uL
- ALANINE AMINOTRANSFERASE [2]: 42.33 u/L
- ALBUMIN [2]: 4.03 G/DL
- ALKALINE PHOSPHATASE [2]: 470.67 u/L
- ASPARTATE AMINOTRANSFERASE [2]: 72.67 u/L
- BLOOD UREA NITROGEN [2]: 16 mg/dL
- CARBON DIOXIDE [2]: 41 mmol/L
- CHLORIDE [2]: 105.33 MEQ/L
- CHOLESTEROL [2]: 72 mg/dL
- CREATINE PHOSPHOKINASE [2]: 350.33 u/L
- CREATININE [2]: 0.53 mg/dL
- GLUCOSE [2]: 155.33 mg/dL
- LIPASE [2]: 249.67 u/L
- PHOSPHORUS [2]: 9.53 mg/dL
- POTASSIUM [2]: 6.27 MEQ/L
- SODIUM [2]: 147.33 MEQ/L
- TOTAL BILIRUBIN [2]: 0.47 mg/dL
- TOTAL PROTEIN [2]: 6.63 G/DL
- URIC ACID [2]: 0.9 mg/dL
- ABSOLUTE BASOPHIL [3]: 50 cells/µL
- ABSOLUTE EOSINOPHIL [3]: 42 cells/µL
- ABSOLUTE LYMPHOCYTE [3]: 10000 cells/µL
- ABSOLUTE MONOCYTE [3]: 250 cells/µL
- BASOPHIL [3]: 0.38%
- EOSINOPHIL [3]: 0.34%
- ERYTHROCYTE COUNT [3]: 7.47 x10E6/uL
- HEMATOCRIT [3]: 46.98%
- HEMOGLOBIN [3]: 15.52 G/DL
- LEUKOCYTE COUNT [3]: 12.8 x10E3/uL
- LYMPHOCYTE [3]: 78.9%
- MEAN CORPUSCULAR HEMOGLOBIN [3]: 20.78 pg
- MEAN CORPUSCULAR HEMOGLOBIN CONCENTRATION [3]: 33.02 G/DL
- MEAN CORPUSCULAR VOLUME [3]: 62.96 fL
- MONOCYTE [3]: 1.9%
- NEUTROPHIL [3]: 17.96%
- PLATELET COUNT [3]: 1148.8 x10E3/uL
- ALANINE AMINOTRANSFERASE [3]: 29 u/L
- ALBUMIN [3]: 4.18 G/DL
- ALKALINE PHOSPHATASE [3]: 389.8 u/L
- ASPARTATE AMINOTRANSFERASE [3]: 69.2 u/L
- BLOOD UREA NITROGEN [3]: 13.8 mg/dL
- CARBON DIOXIDE [3]: 44.6 mmol/L
- CHLORIDE [3]: 102.4 MEQ/L
- CHOLESTEROL [3]: 74.2 mg/dL
- CREATINE PHOSPHOKINASE [3]: 240 u/L
- CREATININE [3]: 0.76 mg/dL
- GLUCOSE [3]: 131.8 mg/dL
- LACTATE DEHYDROGENASE [3]: 199 u/L
- LIPASE [3]: 11.2 u/L
- PHOSPHORUS [3]: 9.98 mg/dL
- POTASSIUM [3]: 6.2 MEQ/L
- SODIUM [3]: 145.8 MEQ/L
- TOTAL BILIRUBIN [3]: 0.4 mg/dL
- TOTAL PROTEIN [3]: 6.92 G/DL
- URIC ACID [3]: 0.58 mg/dL
- BASOPHIL [4]: 0.63%
- EOSINOPHIL [4]: 0.23%
- ERYTHROCYTE COUNT [4]: 6.73 x10E6/uL
- HEMATOCRIT [4]: 44.27%
- HEMOGLOBIN [4]: 14.4 G/DL
- LEUKOCYTE COUNT [4]: 16.4 x10E3/uL
- LYMPHOCYTE [4]: 77.37%
- MEAN CORPUSCULAR HEMOGLOBIN [4]: 21.43 pg
- MEAN CORPUSCULAR HEMOGLOBIN CONCENTRATION [4]: 32.6 G/DL
- MEAN CORPUSCULAR VOLUME [4]: 65.77 fL
- MONOCYTE [4]: 2.5%
- NEUTROPHIL [4]: 16.67%
- PLATELET COUNT [4]: 1260.67 x10E3/uL
- ALANINE AMINOTRANSFERASE [4]: 39 u/L
- ALBUMIN [4]: 3.9 G/DL
- ALKALINE PHOSPHATASE [4]: 237 u/L
- ASPARTATE AMINOTRANSFERASE [4]: 74.33 u/L
- BLOOD UREA NITROGEN [4]: 13.67 mg/dL
- CARBON DIOXIDE [4]: 24.67 mmol/L
- CHLORIDE [4]: 108 MEQ/L
- CHOLESTEROL [4]: 104.33 mg/dL
- CREATINE PHOSPHOKINASE [4]: 169 u/L
- CREATININE [4]: 0.4 mg/dL
- GLUCOSE [4]: 146 mg/dL
- LACTATE DEHYDROGENASE [4]: 59 u/L
- LIPASE [4]: 35.33 u/L
- PHOSPHORUS [4]: 11.03 mg/dL
- POTASSIUM [4]: 5.8 MEQ/L
- SODIUM [4]: 151 MEQ/L
- TOTAL BILIRUBIN [4]: 0.23 mg/dL
- TOTAL PROTEIN [4]: 6.07 G/DL
- URIC ACID [4]: 1.93 mg/dL
- BASOPHIL [5]: 0.35%
- EOSINOPHIL [5]: 0.7%
- ERYTHROCYTE COUNT [5]: 6.38 x10E6/uL
- HEMATOCRIT [5]: 42.1%
- HEMOGLOBIN [5]: 13.35 G/DL
- LEUKOCYTE COUNT [5]: 11.54 x10E3/uL
- LYMPHOCYTE [5]: 82.75%
- MEAN CORPUSCULAR HEMOGLOBIN [5]: 20.9 pg
- MEAN CORPUSCULAR HEMOGLOBIN CONCENTRATION [5]: 31.65 G/DL
- MEAN CORPUSCULAR VOLUME [5]: 66.05 fL
- MONOCYTE [5]: 2%
- NEUTROPHIL [5]: 6.45%
- PLATELET COUNT [5]: 1169 x10E3/uL
- ALANINE AMINOTRANSFERASE [5]: 28.5 u/L
- ALBUMIN [5]: 4 G/DL
- ALKALINE PHOSPHATASE [5]: 238.5 u/L
- ASPARTATE AMINOTRANSFERASE [5]: 69.5 u/L
- BLOOD UREA NITROGEN [5]: 17.5 mg/dL
- CARBON DIOXIDE [5]: 23 mmol/L
- CHLORIDE [5]: 107.5 MEQ/L
- CHOLESTEROL [5]: 62 mg/dL
- CREATINE PHOSPHOKINASE [5]: 269 u/L
- CREATININE [5]: 0.25 mg/dL
- GLUCOSE [5]: 145 mg/dL
- LACTATE DEHYDROGENASE [5]: 62 u/L
- LIPASE [5]: 19 u/L
- PHOSPHORUS [5]: 13.95 mg/dL
- POTASSIUM [5]: 7.05 MEQ/L
- SODIUM [5]: 149.5 MEQ/L
- TOTAL BILIRUBIN [5]: 0.4 mg/dL
- TOTAL PROTEIN [5]: 6.15 G/DL
- URIC ACID [5]: 2.85 mg/dL
